The values that follow come from patent publication US12543738B2 (Bayer Aktiengesellschaft, priority 2020, dated 2026).

Series [1] deals with Botrytis cinerea. Briefly: In vivo preventive test on Botrytis cinerea (grey mould). As to conditions: 500 ppm of active ingredient, preventive spray on gherkin or cabbage, evaluated 4 to 5 days after inoculation, read-out: efficacy. A digest of the protocol: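 Young plants of gherkin or cabbage were sprayed with water-diluted compound formulated in DMSO/acetone/Tween 80, with solvent-only controls. Inoculation followed 24 h later by spraying an aqueous spore suspension of Botrytis cinerea onto leaves.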

Series [2] deals with Alternaria brassicae. Briefly: In vivo preventive test on Alternaria brassicae (leaf spot on radish or cabbage). As to conditions: 144 h, 500 ppm of active ingredient, preventive spray on radish or cabbage, evaluated 6 days after inoculation, read-out: efficacy. A digest of the protocol: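 Young radish or cabbage plants sprayed with compound dissolved in DMSO/acetone/Tween 80 and diluted in water; controls received solvent only. Leaves inoculated 24 h later by spraying an aqueous Alternaria brassicae spore suspension.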

For series [3], the system named is Colletotrichum lindemuthianum. Briefly: In vivo preventive test on Colletotrichum lindemuthianum (leaf spot on bean). As to conditions: 168 h, 500 ppm of active ingredient, preventive spray on bean, evaluated 7 days after inoculation, read-out: efficacy. A digest of the protocol:
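Young bean plants were sprayed with compound dissolved in DMSO/acetone/Tween 80 and diluted in water; controls received the solvent mixture alone. Leaves were spray-inoculated with C. lindemuthianum spore suspension 24 h after treatment (preventive).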

The subject of series [4] is Pyrenophora teres. Briefly: In vivo preventive test on Pyrenophora teres (net blotch on barley). As to conditions: 240 h, 500 ppm of active ingredient, preventive spray on barley, evaluated 10 days after inoculation, read-out: efficacy. Put shortly:
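Young barley plants sprayed preventively with compound dissolved in DMSO/acetone/Tween 80 and diluted in water; controls received solvent mixture only. Leaves inoculated 24 h later by spraying an aqueous P. teres spore suspension.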

For series [5], the system named is Sphaerotheca fuliginea. Briefly: In vivo preventive test on Sphaerotheca fuliginea (powdery mildew on cucurbits). As to conditions: Podosphaera fuliginea, 192 h; 500 ppm of active ingredient; preventive spray on gherkin; evaluated 8 days after inoculation; read-out: efficacy. A digest of the protocol: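 Preventive spray on young gherkin plants with compound in DMSO/acetone/Tween 80 diluted in water; controls received solvent only. Leaves inoculated 24 h later by spraying an aqueous S. fuliginea spore suspension.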

For series [6], the system named is Septoria tritici. Briefly: Septoria tritici in vitro cell test. As to conditions: Zymoseptoria tritici, 168 h; 20 ppm of active ingredient; liquid culture, 7 days incubation; read-out: efficacy (inhibition of fungal growth). The class given is cell-based. Put shortly: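 Liquid culture of S. tritici spore suspension in defined mineral/sucrose medium with compounds added from DMSO solutions; measures inhibition of spore germination and mycelial growth. Growth inhibition derived from absorbance relative to untreated control wells.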

Series [7] has as its system Fusarium culmorum. Briefly: Fusarium culmorum in vitro cell test. As to conditions: 96 h, 20 ppm of active ingredient, liquid culture, 4 days incubation, read-out: efficacy (inhibition of fungal growth). The format is cell-based. As to the method: • Solvent: DMSO • Culture medium: 14.6 g anhydrous D-glucose (VWR), 7.1 g Mycological Peptone (Oxoid), 1.4 g granulated Yeast Extract (Merck), QSP 1 liter • Inoculum: spore suspension • Fungicides were solubilized in DMSO and the solution used to prepare the required range of concentrations. The final concentration of DMSO used in the assay was ≤1%.
A spore suspension of F. culmorum was prepared and diluted to the desired spore density.
Fungicides were evaluated for their ability to inhibit spore germination and mycelium growth in liquid culture assay. The compounds were added in the desired concentration to the culture medium with spores. After 4 days incubation, fungi-toxicity of compounds was determined by spectrometric measurement of mycelium growth. Inhibition of fungal growth was determined by comparing the absorbance values in wells containing the fungicides with the absorbance in control wells without fungicides.

Series [8] relates to Colletotrichum lindemuthianum. Briefly: Colletotrichum lindemuthianum in vitro cell test. As to conditions: 144 h, 20 ppm of active ingredient, liquid culture, 6 days incubation, read-out: efficacy (inhibition of fungal growth). The class given is cell-based. Put shortly:
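Liquid-culture assay: C. lindemuthianum spores in glucose/peptone/yeast extract medium exposed to DMSO-solubilized compound, 6 days incubation. Inhibition of germination and mycelial growth derived from absorbance versus fungicide-free control wells.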

The nature of series [9]: Measurement of LogP values by HPLC on reversed phase columns (EEC directive 79/831 Annex V.A8). The format is physicochemical. As to conditions: method [a]: LC-UV, acidic range, 0.1% formic acid in water and acetonitrile; compounds of formula (I-1), Table 1. As to the method: Calibration was done with straight-chain alkan2-ones (with 3 to 16 carbon atoms) with known LogP values (measurement of LogP values using retention times with linear interpolation between successive alkanones). Lambda-max-values were determined using UV-spectra from 200 nm to 400 nm and the peak values of the chromatographic signals

Series [10] concerns Pyricularia Oryzae. Briefly: microbe, parasite or virus in culture. As to conditions: 120 h, read-out: efficacy (inhibition of fungal growth). The format is cell-based.
The test system of series [11] is Alternaria alternata. Briefly: Alternaria alternata in vitro cell test. The format is cell-based. As to conditions: 120 h, 20 ppm of active ingredient, liquid culture, 5 days incubation, read-out: efficacy (inhibition of fungal growth). A digest of the protocol: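 A. alternata spores in glucose–peptone–yeast extract liquid medium were exposed to DMSO-solubilized compounds. Mycelial growth was measured spectrophotometrically after 5 days. Inhibition was calculated from absorbance relative to compound-free controls.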

In the case of `Cc1cc(C)cc(CC2CON=C(c3cc(C)nnc3Oc3cccc(Cl)c3F)N2)c1` (racemic) [Compound I-010, (5RS)-3-[3-(3-chloro-2-fluorophenoxy)-6-methylpyridazin-4-yl]-5-(3,5-dimethylbenzyl)-5,6-dihydro-4H-1,2,4-oxadiazine], the pest or weed control at 500 ppm in series [1], in [2], in series [3], in series [4] and in series [5] was 90 to 100% each time. The inhibition at 20 ppm in series [6], in series [7], in series [8], in [10] and in series [11] was 90 to 100% throughout. In series [9], the chromatographic logP (usually lipophilicity estimated from chromatographic retention) was 4.01.

In the case of `Cc1ccc(C)c(CC2CON=C(c3cc(C)nnc3Oc3cccc(Cl)c3)N2)c1` (racemic) [Compound I-011, (5RS)-3-[3-(3-chlorophenoxy)-6-methylpyridazin-4-yl]-5-(2,5-dimethylbenzyl)-5,6-dihydro-4H-1,2,4-oxadiazine], the pest or weed control at 500 ppm in series [1], in series [2], in series [3], in [4] and in [5] was 90 to 100% throughout. In addition, the inhibition (commonly the percentage by which the read-out fell short of the control) at 20 ppm in [6] lay within 90 to 100%; in series [7] it was 70 to 79%; in [8], 90 to 100%; in [10] it was 90 to 100%; in series [11], 90 to 100%. This compound also came in with a chromatographic logP in series [9] of 3.7.

On to `Cc1ccc(C)c(CC2CON=C(c3cc(C)nnc3Oc3cccc(Cl)c3F)N2)c1` (racemic) [Compound I-012, (5RS)-3-[3-(3-chloro-2-fluorophenoxy)-6-methylpyridazin-4-yl]-5-(2,5-dimethylbenzyl)-5,6-dihydro-4H-1,2,4-oxadiazine], for which the pest or weed control at 500 ppm in series [1], in [2], in [3], in series [4] and in series [5] was 90 to 100% throughout. Further, the inhibition at 20 ppm in series [6], in series [7], in series [8], in series [10] and in [11] was 90 to 100% each time. For the same compound, the chromatographic logP in series [9] was determined as 3.8.

Take `CCc1cccc(Oc2nnc(C)cc2C2=NOCC(Cc3ccc(C)cc3C)N2)c1F` (racemic) [Compound I-014, (5RS)-5-(2,4-dimethylbenzyl)-3-[3-(3-ethyl-2-fluorophenoxy)-6-methylpyridazin-4-yl]-5,6-dihydro-4H-1,2,4-oxadiazine]: the pest or weed control at 500 ppm in [1], in series [2], in [3], in series [4] and in [5] was 90 to 100% each time. Moreover, the inhibition at 20 ppm in series [6], in [7], in series [8], in [10] and in [11] was 90 to 100% in each case. The compound further had a chromatographic logP in series [9] of 4.12.

For `C[C@@H](F)c1cc(C2=NOC[C@@H](Cc3ccc(Cl)cc3Cl)N2)c(Oc2cccc(C3CC3)c2F)nn1` (racemic) [Compound I-018, (5RS)-3-{3-(3-cyclopropyl-2-fluorophenoxy)-6-[(1RS)-1-fluoroethyl]pyridazin-4-yl}-5-(2,4-dichlorobenzyl)-5,6-dihydro-4H-1,2,4-oxadiazine], the pest or weed control at 500 ppm in series [1], in [2], in series [3], in [4] and in series [5] was 90 to 100% each time. The inhibition at 20 ppm in series [6], in series [7], in series [8], in series [10] and in series [11] was 90 to 100% throughout. The compound also returned a chromatographic logP in series [9] of 4.74.

For `O=CN1C(c2cc(Cl)nnc2Oc2cccc(C3CC3)c2F)=NOCC1Cc1ccc(Cl)cc1Cl` (racemic) [Compound I-025, (5RS)-3-[6-chloro-3-(3-cyclopropyl-2-fluorophenoxy)pyridazin-4-yl]-5-(2,4-dichlorobenzyl)-5,6-dihydro-4H-1,2,4-oxadiazine-4-carbaldehyde], the pest or weed control at 500 ppm in [1], in series [2], in series [3], in series [4] and in series [5] was 90 to 100% each time. Moreover, the inhibition at 20 ppm in series [6], in [7], in series [8], in series [10] and in series [11] was 90 to 100% in each case. The same compound had a chromatographic logP in [9] of 4.93.
